# Assay results reported in US20230373989A1, “N-PHENYLAMINOCARBONYL PYRIDINO-, PYRIMIDINO AND BENZO-TROPANES AS MODULATORS OF GPR65” (PATHIOS THERAPEUTICS LIMITED, priority 2020, published 2023).
# Target: T1, human recombinant GPR65 (Homo sapiens, UniProt Q8IYL9)
# T1 construct: host or cells: 1321N1 human astrocytoma cells (1321N1-hrGPR65)
# Test: Human GPR65 cAMP HTRF antagonist assay
# Type: cell-based
# Settings: not given
# Description: In one preferred embodiment, the compound prevents the increase in cytoplasmic cAMP levels expected following GPR65 activation at acidic pH. This prevention of cAMP accumulation in turn prevents downstream signalling through ICER, as described above. The “Human GPR65 cyclic adenosine monophosphate (cAMP) Homogeneous Time Resolved Fluorescence (HTRF) antagonist assay”, or simply “cAMP assay”, as described in the accompanying examples, can be used to measure the potency of GPR65 modulators, which is expressed as the concentration of compound required to reduce the increase in cAMP concentration upon GPR65 activation by 50% (i.e. an IC50).
# Human GPR65 Cyclic Adenosine Monophosphate (cAMP) Homogeneous Time Resolved Fluorescence (HTRF) Antagonist Assay Procedure
# IC50 data was obtained by the following procedure:
# 1321N1 human astrocytoma cells stably expressing human recombinant GPR65 (1321N1-hrGPR65 cells, EuroscreenFast) were cultured according to the vendor's instructions.
# Compounds were tested for their ability to antagonise GPR65, through measuring the concentration of cytoplasmic cAMP following treatment of the cells at a pH of 7.2 to activate GPR65 signalling and addition of the compound to be tested. The extent to which the expected rise in cAMP concentration upon GPR65 activation was suppressed by the added compound is indicative of its potency. The assay was carried out according to EuroscreenFast assay methodology as follows.
# On the day of the assay, test compounds were added to 384-well, low volume, white microtiter plates by acoustic dispensing. KRH buffer (5 mM KCl, 1.25 mM MgSO4, 124 mM NaCl, 25 mM HEPES, 13.3 mM Glucose, 1.25 mM KH2PO4 and 1.45 mM CaCl2) was adjusted to pH 6.5, pH 7.6 and pH 8.4 by adding NaOH. 1321N1-hGPR65 cells were rapidly thawed and diluted in KRH, pH 7.6 prior to centrifugation at 300×g for 5 min and resuspension in assay buffer (KRH, pH 7.6, supplemented with 1 mM 3-isobutyl-1-methylxanthine (IBMX) and 200 μM ethylenediaminetetraacetic acid (EDTA)). Cells were added to assay plates at a density of 2,000 cells per well in a volume of 5 μl. Assay plates were briefly centrifuged at 100×g and then incubated at room temperature for 30 min. Cells were stimulated by the addition of 5 μL KRH, pH 6.5, to achieve an assay pH of 7.2, while control wells received 5 μl KRH, pH 8.4 to achieve an assay pH of 7.9. Assay plates were briefly centrifuged at 100×g and then incubated at room temperature for 30 min.
# Accumulation of cAMP was detected by cAMP HTRF kit (Cisbio). d2-labeled cAMP and cryptate-labeled anti-cAMP antibody in Lysis and Detection Buffer (Cisbio) were added to assay plates, and the plates were incubated at room temperature for 1 h. HTRF measurements were performed using a Pherastar FSX instrument. Acceptor and donor emission signals were measured at 665 nm and 620 nm, respectively, and HTRF ratios were calculated as signal665 nm/signal620 nm×104. Data were normalised to high and low control values and fitted with 4-parameter logistic regression to determine hGPR65 IC50 values for the test compounds, which are shown in Table 1.
# T1 sequence (Q8IYL9 whole entry): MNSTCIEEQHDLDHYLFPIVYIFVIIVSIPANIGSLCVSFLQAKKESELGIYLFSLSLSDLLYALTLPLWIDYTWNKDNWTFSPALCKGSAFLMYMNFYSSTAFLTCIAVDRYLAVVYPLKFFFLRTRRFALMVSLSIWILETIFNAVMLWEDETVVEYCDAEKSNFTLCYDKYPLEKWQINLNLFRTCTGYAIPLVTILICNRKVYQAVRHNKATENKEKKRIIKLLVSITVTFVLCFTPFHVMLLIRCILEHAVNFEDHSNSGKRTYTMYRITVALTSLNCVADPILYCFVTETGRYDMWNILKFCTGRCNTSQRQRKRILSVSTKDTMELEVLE
row,SMILES,IC50 [nM]
1,"O=C(Nc1ccc(C(F)(F)F)c(Cl)c1)N1C2CCC1c1cncnc1C2 (racemic) [Compound 2, (±)-N-(3-Chloro-4-(trifluoromethyl)phenyl)-6,7,8,9-tetrahydro-5H-5,8-epiminocyclohepta[d]pyrimidine-10-carboxamide]",< 500
2,"O=C(Nc1ccc(Br)c(Cl)c1)N1C2CCC1c1cncnc1C2 (racemic) [Compound 7, (±)-N-(4-Bromo-3-chlorophenyl)-6,7,8,9-tetrahydro-5H-5,8-epiminocyclohepta[d]pyrimidine-10-carboxamide]",< 500
3,"O=C(Nc1ccc(C(F)(F)F)c(Br)c1)N1C2CCC1c1cncnc1C2 (racemic) [Compound 15, (±)-N-(3-Bromo-4-(trifluoromethyl)phenyl)-6,7,8,9-tetrahydro-5H-5,8-epiminocyclohepta[d]pyrimidine-10-carboxamide]",< 500
4,"O=C(Nc1ccc(Br)c(Br)c1)N1C2CCC1c1cncnc1C2 (racemic) [Compound 16, (±)-N-(3,4-Dibromophenyl)-6.7,8,9-tetrahydro-5H-5,8-epiminocyclohepta[d]pyrimidine-10-carboxamide]",< 500
5,"O=C(Nc1ccc(Cl)c(Cl)c1)N1C2CCC1c1ncncc1C2 (racemic) [Compound 17, (±)-N-(3,4-Dichlorophenyl)-6,7,8,9-tetrahydro-5H-6,9-epiminocyclohepta[d]pyrimidine-10-carboxamide]",< 500
6,"O=C(Nc1ccc(C(F)(F)F)c(Cl)c1)N1C2CCC1c1ncncc1C2 (racemic) [Compound 18, (±)-N-(3-Chloro-4-(trifluoromethyl)phenyl)-6,7,8,9-tetrahydro-5H-6,9-epiminocyclohepta[d]pyrimidine-10-carboxamide]",< 500
7,"O=C(Nc1ccc(Cl)c(Cl)c1)N1C2CCC1c1cnc(=O)[nH]c1C2 (racemic) [Compound 31, (±)-N-(3,4-Dichlorophenyl)-2-oxo-2,5,6,7,8,9-hexahydro-1H-5,8-epiminocyclohepta[d]pyrimidine-10-carboxamide]",< 500
8,"O=C(Nc1ccc(C(F)(F)F)c(Cl)c1)N1C2CCC1c1cnc(=O)[nH]c1C2 (racemic) [Compound 32, (±)-N-(3-Chloro-4-(trifluoromethyl)phenyl)-2-oxo-2,5,6,7,8,9-hexahydro-1H-5,8-epiminocyclohepta[d]pyrimidine-10-carboxamide]",< 500
9,"O=C(Nc1ccc(C(F)(F)F)c(Cl)c1)N1C2CCC1c1ccncc1C2 (racemic) [Compound 35, (±)-N-(3-Chloro-4-(trifluoromethyl)phenyl)-6,7,8,9-tetrahydro-5H-5,8-epiminocyclohepta[c]pyridine-10-carboxamide]",< 500
10,"O=C(Nc1ccc(Cl)c(Cl)c1)N1C2CCC1c1ccncc1C2 (racemic) [Compound 36, (±)-N-(3,4-Dichlorophenyl)-6,7,8,9-tetrahydro-5H-5,8-epiminocyclohepta[c]pyridine-10-carboxamide]",< 500

# Same assay, conditions: 1321N1-hrGPR65 cells, assay pH 7.2, cAMP HTRF; read-out: hGPR65 IC50 (activity class)
row,SMILES,IC50 [nM]
1,"O=C(Nc1ccc(C(F)(F)F)cc1)N1C2CCC1c1cncnc1C2 (racemic) [Compound 1, (±)-N-(4-(Trifluoromethyl)phenyl)-6,7,8,9-tetrahydro-5H-5,8-epiminocyclohepta[d]pyrimidine-10-carboxamide]",500 to 5000
2,"O=C(Nc1ccc(Cl)c(C(F)(F)F)c1)N1C2CCC1c1cncnc1C2 (racemic) [Compound 3, (±)-N-(4-Chloro-3-(trifluoromethyl)phenyl)-6,7,8,9-tetrahydro-5H-5,8-epiminocyclohepta[d]pyrimidine-10-carboxamide]",500 to 5000
3,"O=C(Nc1cc(Cl)cc(Cl)c1)N1C2CCC1c1cncnc1C2 (racemic) [Compound 4, (±)-N-(3,5-Dichlorophenyl)-6,7,8,9-tetrahydro-5H-5,8-epiminocyclohepta[d]pyrimidine-10-carboxamide]",500 to 5000
4,"O=C(Nc1ccc(F)c(C(F)(F)F)c1)N1C2CCC1c1cncnc1C2 (racemic) [Compound 5, (±)-N-(4-Fluoro-3-(trifluoromethyl)phenyl)-6,7,8,9-tetrahydro-5H-5,8-epiminocyclohepta[d]pyrimidine-10-carboxamide]",> 5000
5,"O=C(Nc1ccc(F)c(F)c1)N1C2CCC1c1cncnc1C2 (racemic) [Compound 6, (±)-N-(3,4-Difluorophenyl)-6,7,8,9-tetrahydro-5H-5,8-epiminocyclohepta[d]pyrimidine-10-carboxamide]",> 5000
6,"COc1ccc(NC(=O)N2C3CCC2c2cncnc2C3)cc1Cl (racemic) [Compound 8, (±)-N-(3-Chloro-4-methoxyphenyl)-6,7,8,9-tetrahydro-5H-5,8-epiminocyclohepta[d]pyrimidine-10-carboxamide]",> 5000
7,"N#Cc1ccc(NC(=O)N2C3CCC2c2cncnc2C3)cc1Cl (racemic) [Compound 11, (±)-N-(3-chloro-4-cyanophenyl)-6,7,8,9-tetrahydro-5H-5,8-epiminocyclohepta[d]pyrimidine-10-carboxamide]",500 to 5000
8,"O=C(Nc1ccc(Cl)c(Br)c1)N1C2CCC1c1cncnc1C2 (racemic) [Compound 12, (±)-N-(3-Bromo-4-chlorophenyl)-6,7,8,9-tetrahydro-5H-5,8-epiminocyclohepta[d]pyrimidine-10-carboxamide]",500 to 5000
9,"N#Cc1ccc(NC(=O)N2C3CCC2c2cncnc2C3)cc1Br (racemic) [Compound 13, (±)-N-(3-Bromo-4-cyanophenyl)-6,7,8,9-tetrahydro-5H-5,8-epiminocyclohepta[d]pyrimidine-10-carboxamide]",> 5000
10,"O=C(Nc1ccc(Cl)c(Cl)c1)N1C2CCC1c1cnc(C(F)(F)F)nc1C2 (racemic) [Compound 24, (±)-N-(3,4-Dichlorophenyl)-2-(trifluoromethyl)-6,7,8,9-tetrahydro-5H-5,8-epiminocyclohepta[d]pyrimidine-10-carboxamide]",> 5000
11,"Cc1ncc2c(n1)CC1CCC2N1C(=O)Nc1ccc(Cl)c(Cl)c1 (racemic) [Compound 25, (±)-N-(3,4-Dichlorophenyl)-2-methyl-6,7,8,9-tetrahydro-5H-5,8-epiminocyclohepta[d]pyrimidine-10-carboxamide]",> 5000
12,"O=C(Nc1ccc(Cl)c(Cl)c1)N1C2CCC1c1cnc(-c3ccccc3)nc1C2 (racemic) [Compound 26, (±)-N-(3,4-Dichlorophenyl)-2-phenyl-6,7,8,9-tetrahydro-5H-5,8-epiminocyclohepta[d]pyrimidine-10-carboxamide]",500 to 5000
13,"O=C(Nc1ccc(C(F)(F)F)c(Cl)c1)N1C2CCC1c1cnc(C(F)(F)F)nc1C2 (racemic) [Compound 27, (±)-N-(3-Chloro-4-(trifluoromethyl)phenyl)-2-(trifluoromethyl)-6,7,8,9-tetrahydro-5H-5,8-epiminocyclohepta[d]pyrimidine-10-carboxamide]",> 5000
14,"O=C(Nc1ccc(Cl)c(C(F)(F)F)c1)N1C2CCC1c1cnc(-c3ccccc3)nc1C2 (racemic) [Compound 28, (±)-N-(4-Chloro-3-(trifluoromethyl)phenyl)-2-phenyl-6,7,8,9-tetrahydro-5H-5,8-epiminocyclohepta[d]pyrimidine-10-carboxamide]",> 5000
15,"O=C(Nc1ccc(C(F)(F)F)c(Cl)c1)N1C2CCC1c1cnc(-c3ccccc3)nc1C2 (racemic) [Compound 29, (±)-N-(3-Chloro-4-(trifluoromethyl)phenyl)-2-phenyl-6,7,8,9-tetrahydro-5H-5,8-epiminocyclohepta[d]pyrimidine-10-carboxamide]",500 to 5000
16,"O=C(Nc1ccc(Cl)c(Cl)c1)N1C2CCC1c1ccccc1C2 (racemic) [Compound 34, (±)-N-(3,4-Dichlorophenyl)-6,7,8,9-tetrahydro-5H-5,8-epiminobenzo[7]annulene-10-carboxamide]",500 to 5000
17,"O=C(Nc1ccc(C(F)(F)F)c(Cl)c1)N1C2CCC1c1cnccc1C2 (racemic) [Compound 37, (±)-N-(3-Chloro-4-(trifluoromethyl)phenyl)-6,7,8,9-tetrahydro-5H-6,9-epiminocyclohepta[c]pyridine-10-carboxamide]",500 to 5000
